Reference: BigSolDB 2.1

O=C(Oc1ccccc1)c1ccccc1O
solubility (mole fraction)
Details | in ethanol | in isobutanol | in isopropanol | in methanol | in n-butanol | in n-propanol | in sec-butanol
283.15 K | 0.0226 | 0.0185 | 0.0169 | 0.0162 | 0.0337 | 0.0272 | 0.0381
288.15 K | 0.0361 | 0.0288 | 0.0273 | 0.0251 | 0.0511 | 0.043 | 0.0602
293.15 K | 0.0647 | 0.0517 | 0.0487 | 0.0459 | 0.0908 | 0.0756 | 0.105
298.15 K | 0.127 | 0.112 | 0.101 | 0.0946 | 0.182 | 0.152 | 0.201
303.15 K | 0.289 | 0.279 | 0.275 | 0.274 | 0.34 | 0.33 | 0.398
308.15 K | 0.715 | 0.709 | 0.702 | 0.694 | 0.75 | 0.718 | 0.752
